Paper PMC4677665 (ACS Medicinal Chemistry Letters, 2015)

What was measured:
[1] = Brain penetration experiment; format: in vivo, mice; settings: mouse, ip, 5 mg/kg
[2] = test system: CRL-8155 human lymphocytic cells; settings: CRL-8155 cell line, 48 hours
[3] = test system: Type I RH strain T. gondii
[4] = test system: panel of ∼80 diverse human kinases; settings: read-out: IC50s of the kinases inhibited below 1 μM; three of the 80 kinases

Row | Compound | cytotoxicity [2] [µM] | also measured
1 | CCOc1ccc2cc(-c3nn(C(C)(C)C)c(N)c3C(N)=O)cnc2c1 [Compound 1] | >30 | Kp [1]: 0.158; T. gondii infection, peritoneal parasite count (in words) ([3]; po for 5 days, twice daily): significantly reduced T. gondii infection
2 | CCOc1ccc2cc(-c3nn(CC4CC4)c(N)c3C(N)=O)cnc2c1 [Compound 6] | >40 | 
3 | CCOc1ccc2cc(-c3nn(C4CCC4)c(N)c3C(N)=O)cnc2c1 [Compound 7] | >40 | 
4 | CCOc1ccc2cc(-c3nn(C4CCCC4)c(N)c3C(N)=O)cnc2c1 [Compound 8] | >40 | 
5 | CCOc1ccc2cc(-c3nn(C4CCCCCC4)c(N)c3C(N)=O)cnc2c1 [Compound 11] | >40 | 
6 | CCOc1ccc2cc(-c3nn(CC(C)(C)CO)c(N)c3C(N)=O)cnc2c1 [Compound 16] | >40 | 
7 | CCOc1ccc2cc(-c3nn(C(C)(C)C)c(N)c3C(N)=O)ccc2n1 [Compound 17] | >40 | 
8 | CCOc1ccc2cc(-c3nn(CC4CC4)c(N)c3C(N)=O)ccc2n1 [Compound 19] | >40 | 
9 | CCOc1ccc2cc(-c3nn(CC(C)(C)CO)c(N)c3C(N)=O)ccc2n1 [Compound 22] | >40 | 
10 | CC(C)(C)n1nc(-c2cnc3cc(F)ccc3c2)c(C(N)=O)c1N [Compound 23] | >40 | 
11 | COc1ccc2cc(-c3nn(C(C)(C)C)c(N)c3C(N)=O)cnc2c1 [Compound 28] | >40 | 
12 | CC(C)Oc1ccc2cc(-c3nn(C(C)(C)C)c(N)c3C(N)=O)cnc2c1 [Compound 30] | >40 | 
13 | CCCOc1ccc2cc(-c3nn(C(C)(C)C)c(N)c3C(N)=O)cnc2c1 [Compound 31] | >40 | 
14 | CC(C)(C)n1nc(-c2cnc3cc(OCC4CC4)ccc3c2)c(C(N)=O)c1N [Compound 32] | >40 | 
15 | CC(C)(C)n1nc(-c2ccc3nc(OC4CC4)ccc3c2)c(C(N)=O)c1N [Compound 35] | >40 | T. gondii in the peritoneal fluid (in words) ([3]; 20 mg/kg): eliminated T. gondii from the peritoneal fluid; death of treated mice ([3]; 50 mg/kg group, po): one mouse in the 35, 50 mg/kg group died on the fifth day of treatment; IC50 [4]: 200 to 500 nM
16 | CC(C)(C)n1nc(-c2ccc3nc(OC4CCC4)ccc3c2)c(C(N)=O)c1N [Compound 37] | >40 | 
